Drawing on PubChem BioAssay AID1159562 (GlaxoSmithKline (GSK), 2015), this text covers IC50 for 38 compounds.

Active and inactive are the calls of the source. The rule behind the calls is not given here. Some results are limits rather than exact numbers.

The test has as its system Trypanosoma brucei growth inhibition, luminescence. In words: antitrypanosomal activity against T. brucei – luminescence (AID 1159562).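 Note: parasites grew with compound for 24 h before the luminescence read.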
In the case of `COc1ccc(C2=NCC(CSc3nnc(-c4ccc5c(c4)OCO5)o3)S2)cc1` (stereo not drawn), the IC50 (as a rule, the concentration needed to halve the response being measured) is > 40 µM (inactive).
For the compound `NCc1csc(Nc2cc(Oc3ccccc3)ncn2)n1`, the IC50 is 0.79 µM.
In the case of `CCN(Cc1cccs1)C(=O)CSc1nnc(-c2ccc3c(c2)OCO3)o1` it was > 40 µM (inactive); in that of `COc1cnc2ccc(=O)n(CCN3CCC(NC(=O)Cc4ccc(Cl)c(Cl)c4)CC3)c2c1`, 0.5 µM.
On to `CC(=O)Nc1cccc(Nc2ncnc3nc[nH]c23)c1`, for which the IC50 is 0.4 µM.
With `Cc1cc(Br)cc(C(=O)c2c(C(C)C)c(=O)[nH]c(=O)n2Cc2ccnc(N)c2)c1` the figure was 25 µM.
With `CC(=O)Nc1ccc(-c2cnc(N)c(-c3nc4ccc(F)cc4[nH]3)c2)cc1` the figure was 2 µM.
In the case of `Cc1nn(C)c(Cl)c1CN(Cc1cccnc1)Cc1ccsc1` it was > 40 µM (inactive); in that of `O=C(NCCc1ccccc1Cl)c1cccn1-c1cccnc1`, > 40 µM (inactive).
Take `COc1cc(OC)cc(C(NS(=O)(=O)c2ccc(Cl)c(C(F)(F)F)c2)c2nccn2C)c1` (stereo not drawn): the half-maximal inhibitory concentration (IC50) was 7.9 µM.
`CS(=O)(=O)NC1CCC(Oc2cc3cnccc3cc2-c2ccsc2)CC1` (stereo not drawn): the IC50 was > 40 µM (inactive).
In the case of `Clc1cc(Br)ccc1OCCCCn1ccnc1` it was 20 µM; in that of `O=C(NCCc1csc(-c2ccc(F)cc2)n1)c1cccs1`, 0.2 µM; in that of `CN(C)Cc1ccc(N2CCC(NS(=O)(=O)c3ccc(Cl)cc3)CC2)cc1`, 32 µM.
In the case of `CC(C)S(=O)(=O)c1ccc(-c2cnc(N)c3cc(-c4ccnc(N)n4)ccc23)cc1` it was 0.25 µM; in that of `Cc1ccc2sc(NC(=O)Cn3cnc([N+](=O)[O-])n3)nc2c1`, > 40 µM (inactive).
In the case of `Cc1nccn1C1CCCN(C(=O)c2cc3c(F)cccc3s2)C1` (stereo not drawn) it was > 40 µM (inactive).
Regarding `Cc1cc(C#N)c([N+](=O)[O-])cc1Br`, the IC50 was 4 µM.
In the case of `Cc1cnc(Nc2cc(Cc3ccccc3)nc(NC3CCC(O)CC3)n2)s1` (stereo not drawn) it was 0.04 µM.
With `COc1cccc(CN(C)Cc2nc(N)c3c(C)c(C)sc3n2)c1` the figure was 4 µM; with `Cn1c(CC(=O)NNC(=O)c2ccc3ccccc3n2)nc2ccccc21`, 6.3 µM.
For the compound `Cc1ccc(NC(C)C(=O)Nc2ccc(C#N)cc2)cc1S(=O)(=O)N1CCCCC1` (stereo not drawn), the IC50 is 10 µM.
Turning to `NCC(Cc1ccccc1)NC(=O)c1cnc(-c2c[nH]c3ncccc23)s1` (stereo not drawn), the IC50 was 1 µM.
Turning to `COCCn1c(-c2ccc3c(c2)OCO3)cnc1NCc1ccccc1OC`, the half-inhibitory concentration (IC50) was 25 µM.
In the case of `Cc1cc(Oc2cc(Cl)c(Cl)cc2Cl)n2ncnc2n1`, the IC50 was 0.4 µM.
With `Cc1ccc(Nc2nc(C3CCCN3Cc3ccn[nH]3)cs2)nc1` (stereo not drawn) the figure was 4 µM; with `COc1ccc(C)cc1-c1csc(NC(=O)C(C)n2ccnc2)n1` (stereo not drawn), > 40 µM (inactive).
With `CNC(=O)C1Cc2ccccc2N1C(=O)Cc1ccc(F)cc1` (stereo not drawn) the figure was 0.25 µM; with `CC(=O)Nc1ccc(-c2noc(CC3CCCN(Cc4cccc(F)c4C)C3)n2)cc1` (stereo not drawn), 25 µM; with `c1cc(-c2ncc(-c3ccn[nH]3)s2)ccn1`, > 40 µM (inactive).
With `CC(CCc1ccccc1)NC(=O)CN(Cc1ccccn1)Cc1ccccn1` (stereo not drawn) the figure was 5 µM.
Turning to `CCn1c(-c2nonc2N)nc2c([C@@H](C)O)ncc(O[C@H](CN)c3ccccc3)c21`, the IC50 is 0.79 µM.
With `Cc1cc(=O)n2nc(Oc3ccc(C#N)cc3Cl)sc2n1` the figure was 0.32 µM; with `COc1cc(C(C)C)c(S(C)(=O)=O)cc1C(=O)N1CCN(c2ccccc2Cl)CC1`, 32 µM; with `COc1ccc(NS(=O)(=O)c2cccc(NC(=O)c3cc(F)cc(F)c3)c2)cc1`, 1 µM.
In the case of `COc1ccc(-c2nc3ncccc3o2)cc1NC(=O)c1cccs1` it was 2.5 µM.
Regarding `C[C@@H](Oc1cc(-n2cnc3ccc(CC(O)CO)cc32)sc1C(N)=O)c1ccccc1Cl` (stereo partly drawn), the IC50 was 0.79 µM.
In the case of `N#CN1CC[C@@H](NC(=O)Nc2ccccc2Oc2ccccc2)C1` it was 7.9 µM.
